The values below come from US20260216141A1, “NECROSIS INHIBITOR” (LINKGEVITY LIMITED, priority 2023, published 2026).

Assay [1] has as its system S. pombi. The experiment in a line: S. pombi oxidative stress, Propidium iodide staining. Conditions: EGTA 2500 μM during stress; 50 min 1 mM H2O2. Format: cell-based. The method, then: A culture of S. pombi was exposed to 1 mM hydrogen peroxide for 50 min. Following this the yeast cells were washed in buffer and stained with the dye Propidium iodide (PI) and placed on a microscope slide under a coverslip and imaged using Nomarski and epifluorescence microscopy to identify the percentage of yeast cells that underwent necrosis. Treatment is EGTA 2500 μM during stress. Two repeats were performed.
Bacteria, E. coli, and yeast, S. pombi, were exposed to toxin hydrogen peroxide stress (stress is for 50 min 1 mM H2O2) with or without high doses (2500 μM; c.f. FIG. 2) of the chelating agent EGTA (inhibitor of the predicted weak spot of loss of calcium ion homeostasis in the cytosol) delivered during the stress.
For yeast, cells were stained with the standard viability dye Propidium iodide (PI) that only enters necrotic cells, placed on a microscope slide under a coverslip, and imaged using Nomarski and epifluorescence microscopy to identify the percentage of cells that undergo necrosis (all cells present could be counted using Nomarski microscopy).

Assay [2] deals with Zebra fish (Danio rerio) liver. The experiment in a line: Zebra fish liver oxidative stress, PI/DAPI staining. Format: cell-based. To be noted: 2500 μM EGTA during stress, 7 min in 1 mM H2O2. The method, then:
Freshly culled zebrafish (Danio rerio) was dissected to quickly remove the liver which was then placed in PBS buffer and immediately stressed with 1 mM hydrogen peroxide for 7 min in with or without 2500 μM EGTA. The liver was then washed in PBS to stop the stress and stained with PI as well as DAPI to visualise all cell nuclei (including intact cell nuclei). The liver was then placed on a microscope slide under a coverslip and imaged.
Moving to more complex animals, the intact liver from freshly culled and dissected zebrafish (Danio rerio) was placed in PBS buffer and immediately stressed with the toxin hydrogen peroxide with or without EGTA. The liver was then washed in PBS and stained with PI as well as DAPI to visualise all cell nuclei (including intact cell nuclei). The liver was then placed on a microscope slide under a coverslip and imaged, and the percentage of PI-stained cells scored (relative to all cells seen in the image, i.e., DAPI stained).

Entries after “also recorded” stand apart in the source; their conditions may differ.

With `O=C(O)CN(CCOCCOCCN(CC(=O)O)CC(=O)O)CC(=O)O` [EGTA, ethylene glycol-bis(β-aminoethyl ether)-N,N,N′,N′-tetraacetic acid], in assay [1], the “S. pombi death / % of necrotic (PI stained) cells following oxidative stress” value is given as “death is prevented”. In addition, the “% of necrotic cells (PI stain) relative to all cells (DAPI stain)” value in assay [2] was “necrosis cell death is prevented; also recorded: reduction in the percentage of necrotic (PI stained) cells”.
